In experiment [1] the test system is Bone-marrow-derived macrophages. Briefly: IL-10 mRNA (qPCR) in LPS-stimulated macrophages. In kind it is cell-based. The conditions noted are these: Mus musculus, Macrophage, read-out: EC50 for elevation of IL-10 mRNA. The method, then: Primary macrophages were generated by differentiating bone marrow from 6- to 12-week-old C57BL/6 mice for 7 days in Dulbecco's modified Eagle's medium (DMEM) supplemented with 5 ng/ml recombinant M-CSF (R&D systems), 2 mM glutamine, 10% FBS, penicillin and streptomycin. Bone-marrow-derived macrophages were differentiated on non-tissue-culture-treated plastic, harvested and replated at a density of 100000 cells/cm^2 per 0.1 ml on tissue culture-treated plastic in fresh medium before stimulation on day 8. RAW264.7 cells were cultured in DMEM containing 10% FBS, 2 mM glutamine and penicillin and streptomycin. […] Cells were treated for 1 h with or without inhibitors and then stimulated for up to 24 h with either 1 μg/ml Pam3CSK4 or 100 ng/ml LPS.
mRNA was extracted from cells using the MicroElute Total RNA kit following the manufacturers’ instructions (Omega Bio-Tek). cDNA was generated from 0.5 μg of total RNA using the iScript cDNA synthesis kit and quantified by quantitative real-time PCR (qPCR) using the SsoFast EvaGreen Supermix on a CFX384 real-time system (Bio-Rad Laboratories). The relative expression of each gene was calculated from CT values using the Pfaffl method and was normalized against the mRNA levels of housekeeping genes including 18S RNA and GAPDH.

The target of experiment [2] is T1, BRSK1 (Homo sapiens, UniProt Q8TDC3).
T1 sequence (Q8TDC3 1-778): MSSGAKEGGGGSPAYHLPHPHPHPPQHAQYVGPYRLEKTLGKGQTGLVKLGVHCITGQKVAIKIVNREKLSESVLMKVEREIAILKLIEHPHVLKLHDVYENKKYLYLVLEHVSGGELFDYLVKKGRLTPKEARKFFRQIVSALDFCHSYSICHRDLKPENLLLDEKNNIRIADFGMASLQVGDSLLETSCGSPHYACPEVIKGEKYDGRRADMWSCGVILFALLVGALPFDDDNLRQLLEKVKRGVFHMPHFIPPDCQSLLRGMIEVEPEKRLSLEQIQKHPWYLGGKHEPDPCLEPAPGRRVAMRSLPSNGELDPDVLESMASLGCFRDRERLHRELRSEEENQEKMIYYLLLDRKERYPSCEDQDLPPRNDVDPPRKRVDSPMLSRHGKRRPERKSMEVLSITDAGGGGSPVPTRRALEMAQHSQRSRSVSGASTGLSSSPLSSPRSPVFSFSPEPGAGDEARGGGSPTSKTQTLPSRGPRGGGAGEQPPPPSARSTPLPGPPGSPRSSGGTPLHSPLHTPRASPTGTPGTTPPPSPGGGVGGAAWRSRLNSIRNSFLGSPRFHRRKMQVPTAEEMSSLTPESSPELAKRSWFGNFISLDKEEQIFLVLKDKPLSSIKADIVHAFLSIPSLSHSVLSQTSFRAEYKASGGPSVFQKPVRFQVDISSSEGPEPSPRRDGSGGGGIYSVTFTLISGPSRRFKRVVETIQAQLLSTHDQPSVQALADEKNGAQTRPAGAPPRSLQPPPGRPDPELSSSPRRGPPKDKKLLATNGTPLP
Briefly: Kinase profiling. In kind it is biochemical.

Experiment [3] has as its target BTK (Homo sapiens, UniProt Q06187). Briefly: Kinase profiling. In kind it is biochemical.
The target of experiment [4] is T2, DYRK3 (Homo sapiens, UniProt O43781).
T2 sequence (O43781 1-588): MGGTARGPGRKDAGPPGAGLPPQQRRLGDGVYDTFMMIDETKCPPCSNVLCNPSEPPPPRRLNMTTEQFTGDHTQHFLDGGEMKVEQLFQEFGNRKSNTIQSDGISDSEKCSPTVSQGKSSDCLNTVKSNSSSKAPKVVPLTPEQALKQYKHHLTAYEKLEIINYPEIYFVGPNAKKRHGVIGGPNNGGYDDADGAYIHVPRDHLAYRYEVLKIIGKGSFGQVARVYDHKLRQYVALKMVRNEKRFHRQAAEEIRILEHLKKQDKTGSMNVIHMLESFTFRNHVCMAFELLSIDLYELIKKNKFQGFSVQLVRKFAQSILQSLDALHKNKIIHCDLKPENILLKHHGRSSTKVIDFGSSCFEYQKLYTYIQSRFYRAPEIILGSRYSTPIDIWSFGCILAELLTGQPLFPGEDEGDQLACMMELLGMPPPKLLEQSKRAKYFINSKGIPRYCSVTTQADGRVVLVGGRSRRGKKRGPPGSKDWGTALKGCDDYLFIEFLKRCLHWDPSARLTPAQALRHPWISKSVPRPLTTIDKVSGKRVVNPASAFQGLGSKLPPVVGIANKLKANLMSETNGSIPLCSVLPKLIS
Briefly: Kinase profiling. In kind it is biochemical.

Experiment [5] deals with EPH-B2 (Homo sapiens, UniProt P29323). Briefly: Kinase profiling. In kind it is biochemical.
In experiment [6] the target is Lck (Homo sapiens, UniProt P06239). Briefly: Kinase profiling. In kind it is biochemical.
Chain of Lck (P06239 whole entry): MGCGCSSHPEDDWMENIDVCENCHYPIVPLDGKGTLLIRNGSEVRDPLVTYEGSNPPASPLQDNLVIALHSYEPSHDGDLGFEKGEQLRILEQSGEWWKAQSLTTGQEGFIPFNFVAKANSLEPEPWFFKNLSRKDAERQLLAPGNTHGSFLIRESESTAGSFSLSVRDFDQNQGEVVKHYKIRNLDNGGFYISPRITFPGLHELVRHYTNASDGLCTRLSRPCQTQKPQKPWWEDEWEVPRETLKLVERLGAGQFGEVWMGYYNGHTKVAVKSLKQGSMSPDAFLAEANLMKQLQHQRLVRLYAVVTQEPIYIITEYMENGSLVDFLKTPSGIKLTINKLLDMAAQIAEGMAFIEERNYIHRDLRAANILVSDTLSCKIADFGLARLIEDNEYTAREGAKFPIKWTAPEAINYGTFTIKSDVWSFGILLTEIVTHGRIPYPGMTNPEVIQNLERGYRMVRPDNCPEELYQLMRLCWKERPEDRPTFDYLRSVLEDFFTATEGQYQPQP
In experiment [7] the target is MINK1 (Homo sapiens, UniProt Q8N4C8). Briefly: Kinase profiling. In kind it is biochemical.
Chain of MINK1 (Q8N4C8 whole entry): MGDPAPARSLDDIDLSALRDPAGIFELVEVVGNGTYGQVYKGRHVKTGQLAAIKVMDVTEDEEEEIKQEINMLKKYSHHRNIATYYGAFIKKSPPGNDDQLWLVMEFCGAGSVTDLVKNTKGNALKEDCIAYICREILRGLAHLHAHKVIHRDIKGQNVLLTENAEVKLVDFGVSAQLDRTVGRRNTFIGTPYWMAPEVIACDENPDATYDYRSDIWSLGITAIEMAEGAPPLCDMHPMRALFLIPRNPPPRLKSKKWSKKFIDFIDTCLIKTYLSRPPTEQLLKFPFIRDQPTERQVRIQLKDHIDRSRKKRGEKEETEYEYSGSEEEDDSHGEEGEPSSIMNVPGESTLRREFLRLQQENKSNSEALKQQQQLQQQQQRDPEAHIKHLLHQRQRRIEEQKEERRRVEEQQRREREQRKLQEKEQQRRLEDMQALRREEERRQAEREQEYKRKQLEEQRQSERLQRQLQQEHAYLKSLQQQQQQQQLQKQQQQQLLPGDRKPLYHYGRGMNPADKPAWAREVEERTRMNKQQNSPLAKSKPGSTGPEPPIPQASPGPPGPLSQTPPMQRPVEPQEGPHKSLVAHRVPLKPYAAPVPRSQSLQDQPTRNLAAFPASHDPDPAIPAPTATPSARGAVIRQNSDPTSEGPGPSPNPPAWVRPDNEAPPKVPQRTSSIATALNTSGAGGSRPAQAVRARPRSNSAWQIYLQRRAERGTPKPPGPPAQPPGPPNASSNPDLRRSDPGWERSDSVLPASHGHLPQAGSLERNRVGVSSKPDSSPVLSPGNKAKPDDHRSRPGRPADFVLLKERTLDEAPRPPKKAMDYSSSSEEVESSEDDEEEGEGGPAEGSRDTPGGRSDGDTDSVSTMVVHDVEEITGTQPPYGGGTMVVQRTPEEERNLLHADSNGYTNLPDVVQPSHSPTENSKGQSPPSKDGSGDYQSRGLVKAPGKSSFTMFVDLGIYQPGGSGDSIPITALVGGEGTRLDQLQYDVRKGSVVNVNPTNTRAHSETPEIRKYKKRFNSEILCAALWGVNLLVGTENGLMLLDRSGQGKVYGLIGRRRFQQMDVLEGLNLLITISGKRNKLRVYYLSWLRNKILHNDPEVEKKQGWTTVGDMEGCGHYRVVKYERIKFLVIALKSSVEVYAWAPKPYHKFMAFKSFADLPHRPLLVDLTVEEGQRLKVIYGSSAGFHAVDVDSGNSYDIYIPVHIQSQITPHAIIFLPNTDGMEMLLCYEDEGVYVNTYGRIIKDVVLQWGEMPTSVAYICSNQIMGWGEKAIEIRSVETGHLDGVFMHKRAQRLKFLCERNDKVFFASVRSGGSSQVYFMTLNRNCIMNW
Experiment [8] concerns the target PAK6 (Homo sapiens, UniProt Q9NQU5). Briefly: Kinase profiling. In kind it is biochemical.
Experiment [9] addresses PHK (Homo sapiens, UniProt Q16816). Briefly: Kinase profiling. In kind it is biochemical.
For experiment [10], the target named is PKB alpha (Homo sapiens, UniProt P31749). Briefly: Kinase profiling. In kind it is biochemical.
Chain of PKB alpha (P31749 whole entry): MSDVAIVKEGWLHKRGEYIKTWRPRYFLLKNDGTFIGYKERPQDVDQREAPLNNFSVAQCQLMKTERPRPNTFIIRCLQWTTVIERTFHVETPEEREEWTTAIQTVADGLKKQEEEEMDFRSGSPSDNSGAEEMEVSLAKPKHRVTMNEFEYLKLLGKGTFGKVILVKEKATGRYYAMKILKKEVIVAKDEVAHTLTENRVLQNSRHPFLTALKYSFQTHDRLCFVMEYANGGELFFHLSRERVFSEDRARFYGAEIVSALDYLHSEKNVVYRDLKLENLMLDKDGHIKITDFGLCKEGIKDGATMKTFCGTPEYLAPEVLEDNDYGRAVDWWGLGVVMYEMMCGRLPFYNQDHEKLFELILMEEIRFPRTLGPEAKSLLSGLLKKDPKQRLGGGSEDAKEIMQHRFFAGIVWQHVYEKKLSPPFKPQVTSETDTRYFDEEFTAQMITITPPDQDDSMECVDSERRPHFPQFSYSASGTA
Experiment [11] concerns the target PKD1 (Homo sapiens, UniProt Q15139). Briefly: Kinase profiling. In kind it is biochemical.
In experiment [12] the target is Src (Homo sapiens, UniProt P12931). Briefly: Kinase profiling. In kind it is biochemical.
Chain of Src (P12931 whole entry): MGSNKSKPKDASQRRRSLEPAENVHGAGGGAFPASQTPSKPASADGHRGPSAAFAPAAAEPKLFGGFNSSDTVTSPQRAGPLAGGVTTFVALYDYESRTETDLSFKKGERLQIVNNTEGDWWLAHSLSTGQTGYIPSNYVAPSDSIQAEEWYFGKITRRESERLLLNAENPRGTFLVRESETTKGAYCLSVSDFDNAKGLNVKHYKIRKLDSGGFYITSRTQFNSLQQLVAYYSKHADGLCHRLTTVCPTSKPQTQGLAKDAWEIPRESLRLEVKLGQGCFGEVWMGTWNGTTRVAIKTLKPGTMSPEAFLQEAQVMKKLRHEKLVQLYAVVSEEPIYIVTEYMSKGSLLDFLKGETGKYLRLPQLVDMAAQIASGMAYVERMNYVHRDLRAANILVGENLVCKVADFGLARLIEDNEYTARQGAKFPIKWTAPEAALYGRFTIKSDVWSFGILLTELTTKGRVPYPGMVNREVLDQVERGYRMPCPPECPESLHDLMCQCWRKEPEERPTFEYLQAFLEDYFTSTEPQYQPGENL
Experiment [13] addresses STK33 (Homo sapiens, UniProt Q9BYT3). Briefly: Kinase profiling. In kind it is biochemical.
For experiment [14], the target named is TGFBR1 (Homo sapiens, UniProt P36897). Briefly: Kinase profiling. In kind it is biochemical.
Chain of TGFBR1 (P36897 34-503): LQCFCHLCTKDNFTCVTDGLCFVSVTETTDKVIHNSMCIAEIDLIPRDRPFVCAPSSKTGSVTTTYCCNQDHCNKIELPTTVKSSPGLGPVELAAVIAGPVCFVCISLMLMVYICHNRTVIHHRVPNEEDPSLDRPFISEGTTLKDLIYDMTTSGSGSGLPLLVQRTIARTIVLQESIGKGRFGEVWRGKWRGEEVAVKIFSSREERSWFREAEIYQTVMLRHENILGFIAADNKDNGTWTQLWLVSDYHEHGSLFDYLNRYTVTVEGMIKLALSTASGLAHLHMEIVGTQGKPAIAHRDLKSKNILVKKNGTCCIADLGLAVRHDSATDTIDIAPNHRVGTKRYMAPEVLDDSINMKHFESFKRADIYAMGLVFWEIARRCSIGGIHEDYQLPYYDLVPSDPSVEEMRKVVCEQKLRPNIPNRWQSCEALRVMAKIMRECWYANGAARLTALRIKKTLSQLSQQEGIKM
The subject of experiment [15] is Bcr-Abl, Src and Btk.
Method: Cells were extracted in lysis buffer [50 mM Tris/HCl, pH 7.4, 1 mM EDTA, 1 mM EGTA, 50 mM NaF, 5 mM sodium pyrophosphate, 10 mM sodium β-glycerol 1-phosphate, 1 mM DTT, 1 mM sodium orthovanadate, 0.27 M sucrose, 1% (v/v) Triton X-100, 1 μg/ml aprotinin, 1 μg/ml leupeptin and 1 mM PMSF]. Cell extracts were clarified by centrifugation and protein concentrations were determined using the Bradford assay. To immunoprecipitate endogenous CRTC3, 1 mg of cell extract was incubated with 5 μg of anti-CRTC3 [13] covalently cross-linked on to Protein G–Sepharose. Immune complexes were washed three times with lysis buffer, eluted in 1% SDS and separated by SDS/PAGE. To detect proteins in cell lysates, 20 μg of protein extract was separated by SDS/PAGE. After transfer to PVDF membranes, proteins were detected by immunoblotting and visualized by treating the blots with ECL (GE Healthcare) followed by autoradiography.

We go through 2 compounds from article PMC4286194 (Biochemical Journal, 2015).

Where two headings read alike, the source gives them in different places.

Chain of PAK6 (Q9NQU5 whole entry): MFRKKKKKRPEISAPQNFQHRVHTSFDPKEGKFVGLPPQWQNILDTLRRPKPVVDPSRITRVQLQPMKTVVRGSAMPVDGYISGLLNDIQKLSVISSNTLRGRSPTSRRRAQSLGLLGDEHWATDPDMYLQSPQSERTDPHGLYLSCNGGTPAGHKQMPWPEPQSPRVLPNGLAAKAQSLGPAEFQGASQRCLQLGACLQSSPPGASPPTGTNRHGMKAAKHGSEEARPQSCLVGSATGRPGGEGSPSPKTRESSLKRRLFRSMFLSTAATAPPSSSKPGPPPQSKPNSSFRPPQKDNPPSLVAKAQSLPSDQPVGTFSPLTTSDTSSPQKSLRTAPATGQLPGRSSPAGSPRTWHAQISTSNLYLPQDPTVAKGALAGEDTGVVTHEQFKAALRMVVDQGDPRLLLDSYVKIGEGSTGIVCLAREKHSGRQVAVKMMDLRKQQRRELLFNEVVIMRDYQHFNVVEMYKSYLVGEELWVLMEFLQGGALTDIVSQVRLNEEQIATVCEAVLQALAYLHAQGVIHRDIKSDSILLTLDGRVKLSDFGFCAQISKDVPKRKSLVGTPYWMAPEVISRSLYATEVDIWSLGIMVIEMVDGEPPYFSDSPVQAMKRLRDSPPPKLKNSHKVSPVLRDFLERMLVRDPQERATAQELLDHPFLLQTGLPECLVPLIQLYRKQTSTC
Chain of PHK (Q16816 whole entry): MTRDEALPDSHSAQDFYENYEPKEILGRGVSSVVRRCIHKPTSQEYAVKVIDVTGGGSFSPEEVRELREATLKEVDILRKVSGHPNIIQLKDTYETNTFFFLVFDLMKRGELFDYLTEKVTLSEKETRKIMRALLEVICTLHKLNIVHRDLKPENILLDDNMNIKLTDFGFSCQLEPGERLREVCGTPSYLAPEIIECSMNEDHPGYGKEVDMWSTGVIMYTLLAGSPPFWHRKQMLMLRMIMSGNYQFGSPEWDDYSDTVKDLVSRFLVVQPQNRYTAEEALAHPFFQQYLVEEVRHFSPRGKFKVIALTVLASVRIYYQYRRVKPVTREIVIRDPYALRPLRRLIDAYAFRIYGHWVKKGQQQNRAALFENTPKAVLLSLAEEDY
Chain of STK33 (Q9BYT3 whole entry): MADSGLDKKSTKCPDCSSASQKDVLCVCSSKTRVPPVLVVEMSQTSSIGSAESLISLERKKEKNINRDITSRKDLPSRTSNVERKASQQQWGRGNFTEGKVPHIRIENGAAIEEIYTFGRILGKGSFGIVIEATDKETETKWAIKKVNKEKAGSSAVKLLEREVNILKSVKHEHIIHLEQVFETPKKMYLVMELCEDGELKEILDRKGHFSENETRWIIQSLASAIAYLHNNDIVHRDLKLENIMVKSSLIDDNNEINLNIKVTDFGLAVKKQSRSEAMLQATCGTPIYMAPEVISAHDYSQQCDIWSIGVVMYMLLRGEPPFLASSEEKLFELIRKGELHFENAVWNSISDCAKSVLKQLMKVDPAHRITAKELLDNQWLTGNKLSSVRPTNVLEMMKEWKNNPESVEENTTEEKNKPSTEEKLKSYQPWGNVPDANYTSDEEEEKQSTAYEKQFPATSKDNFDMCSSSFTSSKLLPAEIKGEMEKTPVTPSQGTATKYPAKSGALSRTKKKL

For orientation: EC50 means the midpoint of the concentration-response curve. A word on the remaining activity: it is the signal under treatment as a percentage of the control signal. `COc1cc(Nc2c(C#N)cnc3cc(OCCCN4CCN(C)CC4)c(OC)cc23)c(Cl)cc1Cl` [Bosutinib, bosutinib]: the EC50 in experiment [1] (drug 1 h, then LPS 1 h, qPCR, n=4) came out at 320 nM. For the same compound, the remaining activity at 0.1 µM in [2] came to 101 ± 1%; in experiment [3] (0.1 µM) it was 1%; in experiment [4], 85 ± 11%; in [5] (0.1 µM), 1 ± 1%; in experiment [6] (0.1 µM) it was 1%; in experiment [7] it was 5 ± 1%. The remaining activity at 0.1 µM in experiment [9] (0.1 µM) was determined as 55%; in experiment [10] (0.1 µM), 110 ± 16%; in experiment [11], 89 ± 2%; in [12] (0.1 µM) it was 1%; in [13] (0.1 µM), 34%; in experiment [14] (0.1 µM), 87 ± 14%. For the same compound, the remaining activity at 1 µM in experiment [2] was 112 ± 5%; in experiment [3] (1 µM), 1%; in [4], 90 ± 16%; in [5] (1 µM) it was 0%; in experiment [6] (1 µM), 1%; in experiment [7] it was 1%. Further, the remaining activity at 1 µM in experiment [8] was 132 ± 7%; in [9] (1 µM), 12%; in experiment [10], 116 ± 30%; in experiment [12] (1 µM), 1%; in experiment [13] (1 µM), 17 ± 4%; in [14] (1 µM), 101 ± 6%. Further, the “Activity of Bcr-Abl, Src and Btk in primary mouse macrophages” value in experiment [15] is reported as “completely blocking”.

For the compound `Cc1nc(Nc2ncc(C(=O)Nc3c(C)cccc3Cl)s2)cc(N2CCN(CCO)CC2)n1` [Dasatinib], in experiment [1] (1 h), the EC50 is 100 nM. Moreover, the remaining activity at 0.1 µM was 126% in [2], 98 ± 7% in experiment [4], 90 ± 4% in experiment [7] and 126 ± 9% in experiment [8] (0.1 µM). Also, the remaining activity at 1 µM in [2] came out at 123 ± 1%; in [4] it was 104 ± 9%; in experiment [7], 51 ± 1%; in experiment [8] it was 120 ± 4%; in experiment [10] it was 120 ± 13%.
